From patent US20240269350A1, “I[…] FOR TREATING CENTRAL NERVOUS SYSTEM DISORDERS” (priority 2021, published 2024)
Like-named read-outs stand apart in the source and are kept apart here.

Tests used:
[1] = approved oral, patch or i.v. administration; cited from earlier work
[2] = Oral rivastigmine pharmacokinetics and estimated delivery to CSF (Exelon label); assay type: in vivo; settings: for daily dose delivered to CSF: plasma volume 2750 mL, CSF volume 150 mL
Procedure: Drug coating and formulation development. The absolute bioavailability of oral rivastigmine is approximately 40%, and the AUC1-12h cerebral spinal fluid (CSF)/plasma ratio is about 40% (Novartis Exelon® Capsules and Oral Solution Prescribing Information). An estimated 0.87% of the rivastigmine oral dose is absorbed and distributed into the CSF. Thus, the daily CSF uptake of this drug is estimated to be between 26-105 μg. As a starting point for the formulation development, we will first target to formulate a matrix loaded with rivastigmine which will be released over 30 days in a near linear manner. Bilateral administration of the rivastigmine matrix would result in approximately 21-107 μg rivastigmine delivered to CSF/day, assuming a CSF bioavailability between 10-50%.
For oral administration, delivery, an absolute bioavailability of Rivastigmine is about 40% and a mean AUC (area under the curve) 1-12 hr CSF/Plasma is about 40% (Exelon Label). The daily doses delivered to CSF are 26 μg/day, 52 μg/day, 79 μg/day, and 105 μg/day for the oral doses, equating to 1.5 mg BID, 3 mg BID, 4.5 mg BID, and 6 mg BID, respectively. For this estimation, a plasma volume of 2750 mL and a CSF volume of 150 mL are used.

[3] = tartrate salt form; cited from earlier work
[4] = oral administration, cited from earlier work; for AUC1-12h cerebral spinal fluid (CSF)/plasma ratio: mean

In the case of `CC12CC3CC(C)(C1)CC(N)(C3)C2` [Memantine], the Side effects [1] is given as “Headache, constipation,”.

For `CCN(C)C(=O)Oc1cccc([C@H](C)N(C)C)c1` [Rivastigmine], the “daily dose delivered to CSF” value ([2]; oral 1.5 mg BID) was 26 µg/day, the “daily dose delivered to CSF” value ([2]; oral 3 mg BID) was 52 µg/day and the “daily dose delivered to CSF” value ([2]; oral 4.5 mg BID) was 79 µg/day. The “daily dose delivered to CSF” value ([2]; oral 6 mg BID) was 105 µg/day, the “fraction of oral dose absorbed and distributed into the CSF” value ([2]; oral dose, estimated) was 0.87% and the “daily CSF uptake” value ([2]; oral dosing, estimated) was 26 to 105 µg. For the same compound, the water solubility [3] was “highly water-soluble”, the “AUC1-12h cerebral spinal fluid (CSF)/plasma ratio” value [4] was “about 40%” and the “AUC1-12h cerebral spinal fluid (CSF)/plasma ratio” value ([4]; listed as rivastigmine) was “approximately 40%”. For the same compound, the absolute bioavailability [4] was “about 40%” and the absolute bioavailability ([4]; listed as rivastigmine) was “approximately 40%”.
